# Reference: the supplement of paper PMC13380429
# What was measured:
# Conditions in all cases: 72 h
# Vero E6 [1] = test: cell viability relative to DMSO; higher = less toxic
# Caco-2 [2] = test: as above
# U2OS [3] = test: as above
# Calu-3 [4] = test: as above
# HepG2 [5] = test: as above
# Vero E6 [6] = test: relative viability EC50 (midpoint between 100% and the lowest measured viability); higher = less toxic
# Caco-2 [7] = test: as above
# U2OS [8] = test: as above
# Calu-3 [9] = test: as above
# Vero E6 [10] = test: drug sensitivity score (DSS) for viability; higher = more toxic; extreme values may be limits of the assay
# Caco-2 [11] = test: as above
# U2OS [12] = test: as above
# Calu-3 [13] = test: as above
# HepG2 [14] = test: as above
# HepG2 [15] = test: relative viability EC50 (midpoint between 100% and the lowest measured viability); higher = less toxic
Structure (SMILES),cell viability (Vero E6 [1]; 1 nM) [%],cell viability (Vero E6 [1]; 10 nM) [%],cell viability (Vero E6 [1]; 100 nM) [%],cell viability (Vero E6 [1]; 1000 nM) [%],cell viability (Vero E6 [1]; 10000 nM) [%],cell viability (Caco-2 [2]; 1 nM) [%],cell viability (Caco-2 [2]; 10 nM) [%],cell viability (Caco-2 [2]; 100 nM) [%],cell viability (Caco-2 [2]; 1000 nM) [%],cell viability (Caco-2 [2]; 10000 nM) [%],cell viability (U2OS [3]; 1 nM) [%],cell viability (U2OS [3]; 10 nM) [%],cell viability (U2OS [3]; 100 nM) [%],cell viability (U2OS [3]; 1000 nM) [%],cell viability (U2OS [3]; 10000 nM) [%],cell viability (Calu-3 [4]; 1 nM) [%],cell viability (Calu-3 [4]; 10 nM) [%],cell viability (Calu-3 [4]; 100 nM) [%],cell viability (Calu-3 [4]; 1000 nM) [%],cell viability (Calu-3 [4]; 10000 nM) [%],cell viability (HepG2 [5]; 1 nM) [%],cell viability (HepG2 [5]; 10 nM) [%],cell viability (HepG2 [5]; 100 nM) [%],cell viability (HepG2 [5]; 1000 nM) [%],cell viability (HepG2 [5]; 10000 nM) [%],relative viability EC50 (Vero E6 [6]) [µM],relative viability EC50 (Caco-2 [7]) [µM],relative viability EC50 (U2OS [8]) [µM],relative viability EC50 (Calu-3 [9]) [µM],drug sensitivity score (Vero E6 [10]),drug sensitivity score (Caco-2 [11]),drug sensitivity score (U2OS [12]),drug sensitivity score (Calu-3 [13]),drug sensitivity score (HepG2 [14]),relative viability EC50 (HepG2 [15]) [µM]
COc1ccc(-c2nc3cc(C4=NNC(=O)CC4C)ccc3[nH]2)cc1 (centres undefined) [pimobendan],105,110,99.2,101,92.7,106,104,98.4,96.4,80.7,107,105,103,97.7,84.7,98,85.8,112,95.8,90.8,120,113,103,105,59.5,> 10,> 10,> 10,> 10,0,1,0.5,0,1.7,
c1ccc(-c2n[nH]c3c2oc2ccccc23)cc1,91,96.4,91.7,90.1,102,107,99.4,104,96.8,89.7,103,102,98.5,99.6,93.8,89.6,103,102,105,110,104,106,90.1,84,74.5,> 10,> 10,> 10,> 10,0,0,0,0,2.9,
COc1cc(N)c(Cl)cc1C(=O)N[C@@H]1CCN(CCCOc2ccc(F)cc2)C[C@@H]1OC (racemic) [cisapride],,,,,,99.8,103,100,98.9,90.3,97.4,101,93.8,98.3,93.5,99.6,101,84,107,110,99.7,101,96,104,102,,> 10,> 10,> 10,,0,0,0,0,> 10
O=C(OCCO)c1ccccc1O [2-hydroxyethyl-salicylate],,,,,,114,108,100,104,93.3,99.2,102,98.6,104,97.6,97.5,95.5,108,108,94.8,103,99.8,108,100,89,,> 10,> 10,> 10,,0,0,0,0,> 10
CCOc1nc2c(N)ncnc2n1CC [ANR-94],,,,,,102,98.3,92.1,90.9,95.1,104,96.2,101,101,105,105,95.1,96.5,95.9,102,102,98.3,97.3,96.9,93.2,,> 10,> 10,> 10,,0,0,0,0,> 10
CN(C)CCCn1cc(C2=C(c3c[nH]c4ccccc34)C(=O)NC2=O)c2ccccc21,101,95.2,98.3,96.3,68.8,91,90.5,94.1,98,89.3,98.8,103,96.5,101,70.8,105,94.2,92,107,68.6,94.7,96.2,102,95.2,31,,> 10,,,2,0,1.2,1.1,4.5,2.6
